Toxic doses and inconclusive results are not listed. Cut-off read from the data, not from the text of the source: active = T/C of 150% or more; inactive = T/C below 125%.
System: L1210 leukemia ip in BDF1 mice, survival T/C
Test: NCI In Vivo Anticancer Drug Screen. Data for tumor model L1210 Leukemia (intraperitoneal) in B6D2F1 (BDF1) mice
Conditions: endpoint: mean survival time, higher = longer survival
Summary of the method: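 Each compound was tested against a transplantable tumor grown in mice. The endpoint was survival, with treated animals benchmarked against vehicle controls as a simple ratio.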

[1] = dose: 100.0 mg/kg/injection, schedule: Q01DX009 (ip), vehicle: saline with Tween-80
[2] = dose: 100.0 mg/kg/injection, schedule: Q04DX002 (ip), vehicle: saline with Tween-80
[3] = dose: 200.0 mg/kg/injection, schedule: Q01DX009 (ip), vehicle: saline with Tween-80
[4] = dose: 200.0 mg/kg/injection, schedule: Q04DX002 (ip), vehicle: saline with Tween-80
[5] = dose: 400.0 mg/kg/injection, schedule: Q04DX002 (ip), vehicle: saline with Tween-80
[6] = dose: 100.0 mg/kg/injection, schedule: Q01DX001 (ip), vehicle: other
[7] = dose: 200.0 mg/kg/injection, schedule: Q01DX001 (ip), vehicle: other
[8] = dose: 100.0 mg/kg/injection, schedule: Q04DX002 (ip), vehicle: Klucel (hydroxypropylcellulose) (HPC)
[9] = dose: 200.0 mg/kg/injection, schedule: Q04DX002 (ip), vehicle: Klucel (hydroxypropylcellulose) (HPC)
[10] = dose: 400.0 mg/kg/injection, schedule: Q04DX002 (ip), vehicle: Klucel (hydroxypropylcellulose) (HPC)
[11] = dose: 100.0 mg/kg/injection, schedule: Q04DX003 (ip), vehicle: saline with Tween-80
[12] = dose: 200.0 mg/kg/injection, schedule: Q04DX003 (ip), vehicle: saline with Tween-80
[13] = dose: 100.0 mg/kg/injection, schedule: Q01DX009 (ip), vehicle: water
[14] = dose: 50.0 mg/kg/injection, schedule: Q01DX009 (ip), vehicle: Klucel (hydroxypropylcellulose) (HPC)
[15] = dose: 100.0 mg/kg/injection, schedule: Q01DX009 (ip), vehicle: Klucel (hydroxypropylcellulose) (HPC)
[16] = dose: 100.0 mg/kg/injection, schedule: Q04DX003 (ip), vehicle: Klucel (hydroxypropylcellulose) (HPC)
[17] = dose: 200.0 mg/kg/injection, schedule: Q01DX009 (ip), vehicle: Klucel (hydroxypropylcellulose) (HPC)

Measured: T/C

O=C(O)C1C2CCC(O2)C1C(=O)Nc1ccccc1 (stereo unspecified)
inactive: dose: 75.0 mg/kg/injection, schedule: Q01DX001 (ip), vehicle: carboxymethylcellulose (CMC) 102 % of control | dose: 150.0 mg/kg/injection, schedule: Q01DX001 (ip), vehicle: carboxymethylcellulose (CMC) 102 % of control | dose: 300.0 mg/kg/injection, schedule: Q01DX001 (ip), vehicle: carboxymethylcellulose (CMC) 101 % of control

c1ccc(Cc2[nH]c3ccccc3c2-c2ccccc2)cc1
inactive: [1] 93 % of control | [2] 109 % of control | [3] 87 % of control | [4] 100 % of control | [5] 90 % of control

CCOC(=O)C1C(O)CC2COC(=O)C2C1c1ccc(OC(C)=O)cc1 (stereo unspecified)
inactive: [6] 100 % of control | [7] 95 % of control

CN(C)c1ccccc1C(=O)N/N=C\c1ccc(-c2ccccc2)cc1
inactive: [8] 87 % of control | [9] 100 % of control | [10] 117 % of control

CC1=COC(C)(C(=O)O)CC1 (stereo unspecified)
inactive: dose: 55.0 mg/kg/injection, schedule: Q01DX Z (ip), vehicle: methylcellulose (MC) 100 % of control | dose: 83.0 mg/kg/injection, schedule: Q01DX Z (ip), vehicle: methylcellulose (MC) 86 % of control | dose: 125.0 mg/kg/injection, schedule: Q01DX Z (ip), vehicle: methylcellulose (MC) 102 % of control

CCOc1ccc(Nc2cccc3ccccc23)cc1
inactive: [8] 94 % of control | [9] 88 % of control | [10] 98 % of control

C1=Cc2ccccc2/C1=C/c1ccccc1
inactive: [6] 97 % of control | [7] 95 % of control | dose: 400.0 mg/kg/injection, schedule: Q01DX001 (ip), vehicle: other 92 % of control

NNc1c(F)c(F)c(Br)c(F)c1F
inactive: dose: 25.6 mg/kg/injection, schedule: Q04DX002 (ip), vehicle: saline with Tween-80 106 % of control | dose: 64.0 mg/kg/injection, schedule: Q04DX002 (ip), vehicle: saline with Tween-80 95 % of control | dose: 160.0 mg/kg/injection, schedule: Q04DX002 (ip), vehicle: saline with Tween-80 106 % of control | [5] 95 % of control

CCCCN(CCCC)S(=O)(=O)CCC
inactive: dose: 50.0 mg/kg/injection, schedule: Q04DX002 (ip), vehicle: saline with Tween-80 101 % of control | [2] 97 % of control | [4] 97 % of control

N#CCCC#N (tested in a mixture with another compound)
inactive: [11] 96 % of control | [12] 102 % of control

CC(CN1c2ccccc2Sc2ccccc21)[N+](C)(C)C (stereo unspecified)
inactive: dose: 100.0 mg/kg/injection, schedule: Q01DX001 (ip), vehicle: saline 88 % of control

O=C1c2cccc3cccc(c23)C(=O)N1CCN1C(=O)c2cccc3cccc(c23)C1=O
inactive: dose: 3.13 mg/kg/injection, schedule: Q01DX009 (ip), vehicle: Klucel (hydroxypropylcellulose) (HPC) 100 % of control | dose: 6.25 mg/kg/injection, schedule: Q01DX009 (ip), vehicle: Klucel (hydroxypropylcellulose) (HPC) 103 % of control | dose: 12.5 mg/kg/injection, schedule: Q01DX009 (ip), vehicle: Klucel (hydroxypropylcellulose) (HPC) 100 % of control

Nc1ccn(CC(=O)c2ccc(Cl)s2)c(=O)n1
inactive: [13] 95 % of control | dose: 100.0 mg/kg/injection, schedule: Q04DX003 (ip), vehicle: water 101 % of control | dose: 200.0 mg/kg/injection, schedule: Q01DX009 (ip), vehicle: water 101 % of control | dose: 200.0 mg/kg/injection, schedule: Q04DX003 (ip), vehicle: water 100 % of control | dose: 400.0 mg/kg/injection, schedule: Q04DX003 (ip), vehicle: water 102 % of control

CCCCCCC(C)N(C)CCOC(=O)c1ccc([N+](=O)[O-])cc1 (stereo unspecified)
inactive: dose: 75.0 mg/kg/injection, schedule: Q01DX001 (ip), vehicle: other 101 % of control | dose: 150.0 mg/kg/injection, schedule: Q01DX001 (ip), vehicle: other 106 % of control

COc1ccc(CCCC(C)(C)O)cc1
inactive: dose: 50.0 mg/kg/injection, schedule: Q01DX009 (ip), vehicle: saline with Tween-80 94 % of control | [1] 97 % of control

O=[N+]([O-])c1ccc2c(c1)-c1ccccc1C1=NCCN12
inactive: dose: 20.0 mg/kg/injection, schedule: Q04DX003 (ip), vehicle: Klucel (hydroxypropylcellulose) (HPC) 91 % of control | dose: 25.0 mg/kg/injection, schedule: Q01DX009 (ip), vehicle: Klucel (hydroxypropylcellulose) (HPC) 105 % of control | dose: 40.0 mg/kg/injection, schedule: Q04DX003 (ip), vehicle: Klucel (hydroxypropylcellulose) (HPC) 96 % of control | [14] 102 % of control | dose: 80.0 mg/kg/injection, schedule: Q04DX003 (ip), vehicle: Klucel (hydroxypropylcellulose) (HPC) 102 % of control | [15] 105 % of control | [16] 101 % of control

S=c1n(Cc2ccccc2)cnc2ncnn12
inactive: [14] 93 % of control | [15] 97 % of control | [17] 95 % of control

CCC(=O)c1ccc(NC(C)=O)cc1
inactive: [15] 100 % of control | [16] 99 % of control | [17] 100 % of control | dose: 200.0 mg/kg/injection, schedule: Q04DX003 (ip), vehicle: Klucel (hydroxypropylcellulose) (HPC) 96 % of control | dose: 400.0 mg/kg/injection, schedule: Q01DX009 (ip), vehicle: Klucel (hydroxypropylcellulose) (HPC) 103 % of control | dose: 400.0 mg/kg/injection, schedule: Q04DX003 (ip), vehicle: Klucel (hydroxypropylcellulose) (HPC) 96 % of control

Cc1ccc(S(=O)(=O)OCCN(CCOS(=O)(=O)c2ccc(C)cc2)c2cc(OCc3ccccc3)cc(OCc3ccccc3)c2)cc1
inactive: dose: 25.0 mg/kg/injection, schedule: Q01DX009 (ip), vehicle: water 100 % of control | dose: 50.0 mg/kg/injection, schedule: Q01DX009 (ip), vehicle: water 121 % of control | [13] 89 % of control | dose: 400.0 mg/kg/injection, schedule: Q01DX009 (ip), vehicle: water 95 % of control

CC(=O)CC(=O)C(F)(F)F.CC(=O)CC(=O)C(F)(F)F.CC(=O)CC(=O)C(F)(F)F.[Rh]
inactive: [1] 97 % of control | [11] 97 % of control | [3] 100 % of control | [12] 90 % of control | dose: 400.0 mg/kg/injection, schedule: Q01DX009 (ip), vehicle: saline with Tween-80 96 % of control | dose: 400.0 mg/kg/injection, schedule: Q04DX003 (ip), vehicle: saline with Tween-80 92 % of control

CCC[CH2][Sn]([CH2]CCC)([O]C)[O]C
inactive: dose: 4.0 mg/kg/injection, schedule: Q01DX009 (ip), vehicle: Klucel (hydroxypropylcellulose) (HPC) 98 % of control | dose: 4.0 mg/kg/injection, schedule: Q04DX003 (ip), vehicle: Klucel (hydroxypropylcellulose) (HPC) 96 % of control | dose: 8.0 mg/kg/injection, schedule: Q01DX009 (ip), vehicle: Klucel (hydroxypropylcellulose) (HPC) 98 % of control | dose: 8.0 mg/kg/injection, schedule: Q04DX003 (ip), vehicle: Klucel (hydroxypropylcellulose) (HPC) 101 % of control | dose: 16.0 mg/kg/injection, schedule: Q01DX009 (ip), vehicle: Klucel (hydroxypropylcellulose) (HPC) 104 % of control | dose: 16.0 mg/kg/injection, schedule: Q04DX003 (ip), vehicle: Klucel (hydroxypropylcellulose) (HPC) 99 % of control
